Results as given in paper PMC11659602, “Discovering covalent cyclic peptide inhibitors of peptidyl arginine deiminase 4 (PADI4) using mRNA-display with a genetically encoded electrophilic warhead” (Communications Chemistry, 2024).
Where “and” joins values, the source holds several entries; their conditions need not be identical. Equal values may be shown once. Read-outs that look alike come from different tables or passages of the source. Where a SMILES comes first, the peptide text is derived from it. Bridges are numbered along the chain shown (N, C = ends). [ ]: non-standard residue; d: D form. Orn(fluoroacetimidoyl) = N=C(CF)NCCC[C@H](N)C(=O)O

Molecular target: T1, PADI4 (Homo sapiens, UniProt Q9UM07)
T1 construct: His6; made in house
T1 sequence (Q9UM07 whole entry): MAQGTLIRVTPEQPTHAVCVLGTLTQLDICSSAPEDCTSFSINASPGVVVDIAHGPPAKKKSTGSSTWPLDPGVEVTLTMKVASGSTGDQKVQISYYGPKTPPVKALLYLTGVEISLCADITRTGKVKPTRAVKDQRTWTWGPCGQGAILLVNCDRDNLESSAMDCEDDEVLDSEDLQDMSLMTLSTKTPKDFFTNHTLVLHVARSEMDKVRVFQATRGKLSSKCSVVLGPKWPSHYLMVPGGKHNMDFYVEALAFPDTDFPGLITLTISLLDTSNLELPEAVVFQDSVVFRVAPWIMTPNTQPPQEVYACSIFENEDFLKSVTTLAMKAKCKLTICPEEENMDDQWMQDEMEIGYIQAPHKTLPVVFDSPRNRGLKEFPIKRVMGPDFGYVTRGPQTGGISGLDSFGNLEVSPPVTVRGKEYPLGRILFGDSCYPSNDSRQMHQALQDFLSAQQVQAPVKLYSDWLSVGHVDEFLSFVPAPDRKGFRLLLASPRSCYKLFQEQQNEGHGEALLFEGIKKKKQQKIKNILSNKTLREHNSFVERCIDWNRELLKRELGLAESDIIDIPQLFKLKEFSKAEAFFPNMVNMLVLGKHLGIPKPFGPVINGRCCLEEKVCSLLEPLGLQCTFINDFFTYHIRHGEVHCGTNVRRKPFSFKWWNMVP
Test: Incubation time-dependent COLDER assay IC50(t), Krippendorff fit
Format: biochemical
Conditions: for Ki / kinact: Krippendorff fit of IC50 vs time
Protocol: To determine KI and kinact of covalent peptide inhibitors, COLDER assays were used[52]. Peptide dilutions were prepared using 5-fold dilutions from 500 µM and 300 µM to 0.8 µM and 2.4 µM, respectively, at 1% DMSO in COLDER buffer (50 mM HEPES, 150 mM NaCl and 2 mM DTT, pH 7.5). The 9 peptide dilutions were added to a 96-well plate, alongside a 1% DMSO control. An equal volume of 10 mM BAEE was added to each well and the solution was homogenised by pipette mixing. This was mixed with 50 nM His-PADI4, 0.6 mg/mL BSA and 10 mM CaCl2, in COLDER buffer, to bring the final volume to 300 µL in each well. Alternatively, His-PAD1 (100 nM) /His-PADI2 (100 nM) /His-PADI3 (250 nM) were used. For assays with PADI1 and PADI3, 10 mM N^α-benzoyl-L-arginine methyl […] (BAME) was used as the substrate instead of BAEE[48],[58],[59]. At 15-minute intervals, for 5 timepoints, 50 µL of solution was taken from each well and quenched with 10 µL EDTA (300 mM). 200 µL of COLDER solution containing 20 mM diacetyl monoxime/2,3-butanedione monoxime (Merck), 0.5 mM thiosemicarbazide (Acros Organics), 2.25 M H3PO4, 4.5 M H2SO4 and 1.5 mM NH4Fe(SO4)2.12H2O was added to each well. Samples were incubated for 20 min at 95 °C before measuring absorbance at 540 nm on a CLARIOstar Plus (BMG LABTECH). IC50 values for each time point were determined using non-linear regression with GraphPad Prism. Incubation time–dependent potency IC50(t) against incubation time was fitted to the Krippendorff equation (below) to determine KI and kinact using a Python script[53],[59]. […] IC50t=KI1+S/KM⋅2−2e^−ηIC50⋅kinact⋅t/ηIC50⋅kinact⋅t−1 WhereηIC50=IC50t/KI1+S/KM+IC50t

[1] = 15 mins, replicates, read-out: apparent IC50
[2] = 30 mins, replicates, read-out: apparent IC50
[3] = 45 mins, replicates, read-out: apparent IC50
[4] = 60 mins, replicates, read-out: apparent IC50
[5] = 75 mins, replicates, read-out: apparent IC50

For `CC(C)C[C@@H]1NC(=O)[C@H](CCCCN)NC(=O)[C@H](CO)NC(=O)[C@H](CO)NC(=O)[C@H](Cc2ccc(O)cc2)NC(=O)[C@H](Cc2c[nH]cn2)NC(=O)[C@H](CCCNC(=N)CF)NC(=O)[C@H](CC(=O)O)NC(=O)[C@H](CC(C)C)NC(=O)[C@@H](Cc2ccc(O)cc2)NC(=O)CSC[C@@H](C(=O)NCC(N)=O)NC(=O)[C@H](Cc2ccc(O)cc2)NC1=O` [cP4_15, yLD(2)HYSSKLYCG] ({CH2CO}-[dY]LD[Orn(fluoroacetimidoyl)]HYSSKLYCG-NH2; thioether N-12), the kinact/KI was 3550 M⁻¹ s⁻¹, the IC50 (60-minute time point, no preincubation, read-out: PADI4 IC50) was 850 nM and the IC50 [1] was 4150 nM and 3690 nM and 2680 nM. For the same compound, the IC50 [2] was 1490 nM and 1390 nM and 1520 nM, the IC50 [3] was 996 nM and 1150 nM and 1210 nM and the remaining activity at 0.048 µM (1 h, 0.048 µM, quenched after 60 mins, read-out: PADI4 activity normalised to 0.1% DMSO) was 98.8%. For the same compound, the remaining activity at 0.08 µM (1 h, 0.08 µM, quenched after 60 mins, read-out: PADI4 activity normalised to 0.1% DMSO) was 93.4%, the remaining activity at 0.24 µM (1 h, 0.24 µM, quenched after 60 mins, read-out: PADI4 activity normalised to 0.1% DMSO) was 87.8% and the remaining activity at 0.4 µM (1 h, 0.4 µM, quenched after 60 mins, read-out: PADI4 activity normalised to 0.1% DMSO) was 76.7%. For the same compound, the remaining activity at 1.2 µM (1 h, 1.2 µM, quenched after 60 mins, read-out: PADI4 activity normalised to 0.1% DMSO) was 35.6%, the remaining activity at 2 µM (1 h, 2 µM, quenched after 60 mins, read-out: PADI4 activity normalised to 0.1% DMSO) was 23.1% and the remaining activity at 6 µM (1 h, 6 µM, quenched after 60 mins, read-out: PADI4 activity normalised to 0.1% DMSO) was 12.5%. The remaining activity at 10 µM (1 h, 10 µM, quenched after 60 mins, read-out: PADI4 activity normalised to 0.1% DMSO) was 7.1%, the IC50 [4] was 809 nM and 775 nM and 965 nM and the IC50 [5] was 752 nM and 784 nM and 780 nM. The Ki was 780 ± 60 nM and the kinact was 0.00283 s⁻¹.
In the case of `N=C(N)NCCC[C@@H]1NC(=O)[C@H](CCCNC(=N)CF)NC(=O)[C@H](CC(=O)O)NC(=O)[C@H](Cc2ccc(O)cc2)NC(=O)[C@H](CCCCN)NC(=O)[C@H](CO)NC(=O)[C@@H](Cc2ccc(O)cc2)NC(=O)CSC[C@@H](C(=O)NCC(N)=O)NC(=O)[C@H](CC(=O)O)NC(=O)[C@H](CCCNC(=N)N)NC(=O)[C@@H]2CCCN2C(=O)[C@H](CO)NC1=O` [cP4_4, ySKYD(2)RSPRDCG] ({CH2CO}-[dY]SKYD[Orn(fluoroacetimidoyl)]RSPRDCG-NH2; thioether N-12), the kinact/KI is reported as 1230 M⁻¹ s⁻¹, the IC50 [1] is reported as 8810 nM and 8730 nM and 8280 nM and the IC50 [2] is reported as 4670 nM and 4780 nM and 4310 nM. The IC50 [3] was 3420 nM and 4190 nM and 3180 nM, the IC50 [4] was 3080 nM and 3100 nM and 2670 nM and the IC50 [5] was 2720 nM and 2530 nM and 2470 nM. For the same compound, the Ki was 1900 ± 100 nM, the kinact was 0.00217 s⁻¹ and the “PADI4 activity, normalised (Figure S11c)” value (cP4_4 0.08 µM) was 98.2718 and 96.1223 and 99.8314. For the same compound, the “PADI4 activity, normalised (Figure S11c)” value (cP4_4 0.24 µM) was 93.4756 and 94.2113, the “PADI4 activity, normalised (Figure S11c)” value (cP4_4 0.4 µM) was 100.554 and 87.7482 and the “PADI4 activity, normalised (Figure S11c)” value (cP4_4 1.2 µM) was 75.0589 and 75.4411 and 70.326. For the same compound, the “PADI4 activity, normalised (Figure S11c)” value (cP4_4 2 µM) was 67.2548 and 61.3338, the “PADI4 activity, normalised (Figure S11c)” value (cP4_4 6 µM) was 29.9549 and 26.3769 and the “PADI4 activity, normalised (Figure S11c)” value (cP4_4 10 µM) was 22.5225 and 20.5991 and 19.0146. For the same compound, the “PADI4 activity, normalised (Figure S11c)” value (cP4_4 30 µM) was 7.3132 and 8.5351 and 5.9198 and the “PADI4 activity, normalised (Figure S11c)” value (cP4_4 50 µM) was 3.0999 and 5.4575 and 3.9528.
